The values that follow come from publication PMC12881681 (Molecular Pharmacology, 2025).

For series [1] the following is noted: ref erlotinib (TARCEVA), package insert, 2016; cited from earlier work.
Series [2] addresses T1, human liver cytosolic AOX1 (Homo sapiens, UniProt Q06278).
T1 sequence (Q06278 1-1338): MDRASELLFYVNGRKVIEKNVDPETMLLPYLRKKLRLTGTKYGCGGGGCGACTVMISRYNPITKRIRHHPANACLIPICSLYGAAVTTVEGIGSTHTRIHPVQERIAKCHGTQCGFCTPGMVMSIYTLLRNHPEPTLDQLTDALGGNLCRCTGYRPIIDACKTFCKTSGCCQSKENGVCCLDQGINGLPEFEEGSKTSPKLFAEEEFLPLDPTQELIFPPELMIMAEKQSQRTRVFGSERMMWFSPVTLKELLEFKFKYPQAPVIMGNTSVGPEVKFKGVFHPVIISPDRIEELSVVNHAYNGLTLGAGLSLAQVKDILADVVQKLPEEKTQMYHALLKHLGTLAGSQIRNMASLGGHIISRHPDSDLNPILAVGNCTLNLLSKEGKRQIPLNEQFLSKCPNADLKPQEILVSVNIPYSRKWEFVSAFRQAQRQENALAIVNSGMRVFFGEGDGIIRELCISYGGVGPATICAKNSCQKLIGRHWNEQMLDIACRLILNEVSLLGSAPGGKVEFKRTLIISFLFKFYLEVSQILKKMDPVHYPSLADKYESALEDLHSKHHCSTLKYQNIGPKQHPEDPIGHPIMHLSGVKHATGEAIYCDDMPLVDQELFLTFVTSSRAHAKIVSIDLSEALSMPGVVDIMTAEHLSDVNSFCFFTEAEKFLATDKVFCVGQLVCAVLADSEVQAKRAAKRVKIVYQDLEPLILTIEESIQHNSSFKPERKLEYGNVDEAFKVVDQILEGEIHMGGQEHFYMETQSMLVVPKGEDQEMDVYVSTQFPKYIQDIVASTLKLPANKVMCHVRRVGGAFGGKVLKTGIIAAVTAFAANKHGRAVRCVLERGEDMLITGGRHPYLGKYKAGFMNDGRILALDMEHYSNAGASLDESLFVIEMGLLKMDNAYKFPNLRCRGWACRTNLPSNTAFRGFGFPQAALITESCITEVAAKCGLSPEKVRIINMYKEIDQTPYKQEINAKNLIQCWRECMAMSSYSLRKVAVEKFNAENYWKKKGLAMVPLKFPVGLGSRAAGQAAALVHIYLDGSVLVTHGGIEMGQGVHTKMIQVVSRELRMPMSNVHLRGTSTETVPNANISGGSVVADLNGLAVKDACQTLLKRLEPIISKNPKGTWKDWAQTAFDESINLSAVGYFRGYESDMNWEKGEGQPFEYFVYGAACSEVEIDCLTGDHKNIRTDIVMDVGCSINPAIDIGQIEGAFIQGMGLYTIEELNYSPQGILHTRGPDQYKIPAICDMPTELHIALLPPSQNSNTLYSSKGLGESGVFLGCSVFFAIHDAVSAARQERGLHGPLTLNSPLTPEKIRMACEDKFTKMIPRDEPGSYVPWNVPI
The format is biochemical. On the set-up: Enzymatic reaction was initiated by adding human liver cytosol (100 μg); tissue Corning, Inc. (Gentest brand) 452115; host or cells: human liver cytosol, pool of 150 donors. The conditions noted are these: 5 mM agent, 10 min; erlotinib 1.5 μM, analogs 2 μM.
Procedure: Potassium ferricyanide (5 mM; oxidizing agent), sodium dithionite (5 mM; reducing agent), or potassium phosphate buffer (vehicle for oxidizing/reducing agent) was preincubated with human liver cytosol (200 μg protein) in a total volume of 100 μL at 37 °C for 10 minutes. […] After a 0 or 6-minute preincubation duration, an aliquot (10 μL) of the secondary incubation mixture was transferred to a prewarmed tertiary incubation mixture (total volume of 200 μL) containing potassium phosphate buffer and carbazeran (15 μM), which yielded a 20-fold dilution of the secondary incubation mixture. The tertiary incubation mixture was incubated for 5 minutes at 37 °C before the enzymatic reaction was terminated with 200 μL of ice-cold acetonitrile containing carbazeran-d4 (2.5 nM final concentration; internal standard for 4-oxo-carbazeran). The residual AOX1 enzyme activity was determined by the carbazeran 4-oxidation assay.

In the next series the test system is AOX1. Particulars: zoniporide as AOX substrate; cited from earlier work.
The conditions of series [3]: clinical phase I study; cited from earlier work.
Series [4] in a line: Pharmacokinetics study in mice: erlotinib pretreatment, carbazeran and 4-oxo-carbazeran. The format is in vivo, BALB/c mice. The conditions noted are these: erlotinib 100 mg/kg p.o. As for the experimental part: BALB/c mice (male, ∼8 weeks old) were purchased and housed at the Biological Resource Centre, Agency for Science, Technology and Research (A∗STAR). The experimental protocol was approved by the A∗STAR Institutional Review Board. […] Blood (12.5 μL) was drawn from the tail vein (with a needle prick) at various times (0.25, 0.5, 0.75, 1, 2, 3, 4, 6, and 8 hours) after carbazeran dosing. The blood samples were diluted 2 times with 12.5 μL of water. Acetonitrile containing the internal standard (carbazeran-d4, 4 nM in 75 μL acetonitrile and 3 nM in final sample volume of 100 μL) was added to the blood samples to precipitate proteins. […] Blank and standard calibration samples were prepared from control mice that were not treated with any chemicals. Pharmacokinetic data were analyzed by noncompartmental analysis using Phoenix WinNonlin 6.3 (Certara).
At the end of the last blood collection (8 hour post-carbazeran dosing), the mice were sacrificed. […] The tissue samples were homogenized, and a 12.5 μL aliquot of the homogenate was diluted with an equal volume of water. Acetonitrile containing the internal standard (carbazeran-d4, 4 nM in 75 μL acetonitrile and 3 nM in final sample volume of 100 μL) was added to the diluted tissue samples (25 μL) to precipitate the proteins.

Details of series [5]: method as in PMID 26330331. The conditions noted are these: mice, oral dosing; cited from earlier work.

Consider `C#Cc1cccc(Nc2ncnc3cc(OCCOC)c(OCCOC)cc23)c1` [Erlotinib], for which the Plasma fu entry in series [1] was “e Cmax,u = plasma fu × Cmax. Plasma fu = 0.07, based on erlotinib (TARCEVA), package insert, 2016. For O-desmethylerlotinib and O-didesmethylerlotinib, the fu is assumed to be similar to the parent drug”. Moreover, in series [2], the “effect of preincubating cytosol with potassium ferricyanide or sodium dithionite on AOX1 inactivation” value was “neither sodium dithionite nor potassium ferricyanide affected”. Further, the Ki in the series on AOX1 is 720 nM. Moreover, the “effect on plasma concentration of OSI-930” value in series [3] is reported as “increase”. Besides, in series [4] (8 hours after carbazeran), the “concentration of 4-oxo-carbazeran metabolite in liver and kidneys” value is “decreased the concentration”; the “concentration of carbazeran in liver and kidneys” value is recorded as “increased the concentration”. In addition, in series [4] (all time points to 8 h), the “concentration of 4-oxo-carbazeran metabolite in blood vs vehicle-treated control” value is “far lesser concentration” and the “concentration of carbazeran in blood vs vehicle-treated control” value was “greater concentration”. The elimination half-life in series [5] was 42 min.
As for `C#Cc1cccc(Nc2nc(C)nc3cc(OCCOC)c(OCCOC)cc23)c1` [2-Methylerlotinib, 2-methylerlotinib], the “effect of preincubating cytosol with potassium ferricyanide or sodium dithionite on AOX1 inactivation” value in series [2] was “neither sodium dithionite nor potassium ferricyanide affected”.
